Test results taken from paper PMC12010006, “Subnanomolar MAS-related G protein-coupled receptor-X2/B2 antagonists with efficacy in human mast cells and disease models” (Signal Transduction and Targeted Therapy, 2025).
Entries after “also recorded” stand apart in the source; their conditions may differ.

Tests used:
MRGPRX2 [1] = target: T1, MRGPRX2 (Homo sapiens, UniProt Q96LB1); experiment: β-hexosaminidase release, primary human skin mast cells; format: cell-based
T1 sequence (Q96LB1 1-330): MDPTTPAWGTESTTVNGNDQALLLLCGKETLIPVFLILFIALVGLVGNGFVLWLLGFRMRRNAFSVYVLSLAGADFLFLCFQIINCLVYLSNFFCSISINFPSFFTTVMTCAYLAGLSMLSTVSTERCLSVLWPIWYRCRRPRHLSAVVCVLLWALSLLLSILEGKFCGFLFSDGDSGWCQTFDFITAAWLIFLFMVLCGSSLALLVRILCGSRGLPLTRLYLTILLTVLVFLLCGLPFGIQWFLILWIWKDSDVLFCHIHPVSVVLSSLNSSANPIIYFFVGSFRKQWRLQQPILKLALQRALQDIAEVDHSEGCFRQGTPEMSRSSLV
Method: Finally, the effect of the MRGPRX2 antagonist PSB-172656 on MRGPRX2-mediated MC degranulation in primary human skin mast cells isolated from breast skin tissue was investigated. These cells were controlled by flow cytometry for CD117, FcεRI, and MRGPRX2 to ensure their purity (Supplementary Fig. S6), and their functionality was assessed using the MC degranulation β-hexosaminidase release assay (Fig. 6g).
MCs were isolated from breast skin tissue, which was sectioned into strips and digested overnight at 4 °C in 2.4 U/mL dispase type II (Fisher Scientific). […] The purity of the MC cultures was assessed by flow cytometry for CD117 and FcεRI (Miltenyi) and exceeded 95%. […]
For β-hexosaminidase release assays, MCs were fed the day before stimulation with the medium. […] The reaction was stopped by adding 100 µL of sodium carbonate buffer (pH 10.7), and fluorescence was measured at 460 nm and excitation at 355 nm for 0.1 s. The percentage of β-hexosaminidase release was calculated as: […] × 100. […]

[2] = Metabolic stability in human liver microsomes; format: in vitro ADME; details: human liver microsomes 0.25 mg/ml, compound 1 µM
MRGPRX2 [3] = target: T1, MRGPRX2; experiment: Ca2+ mobilization in LAD2 cells; format: cell-based; details: stimulation with clomipramine (16.0 µM), paroxetine (18.1 µM), desipramine (34.4 µM); listed as PSB-172656
Text: PSB-172656 inhibited MRGPRX2-mediated Ca^2+ mobilization in LAD2 cells (see Supplementary Fig. S4).
Blocking of MRGPRX2 by the selective antagonist PSB-172656. […] Arrows indicate addition of stimulus; graphs represent means ± SEM of three independent experiments.

inhibition at 1.25 µM (MRGPRX2 [1]; lowest tested concentration 1.25 µM, versus CST-14, read-out: inhibition of β-hexosaminidase release in human skin MCs): > 50%
half-life at 1 µM ([2]; both sexes, human, liver microsomes, read-out: T1/2 (half-life)): 1.53 h
microsomal CLint at 1 µM ([2]; both sexes, read-out: Clint (intrinsic clearance)): 15 µL/min/mg
T1/2 (half-life) [2]: 1.54 h
T1/2 (half-life) ([2]; listed as PSB-172656): > 1.5 h
SMILES: CCc1c(C(C)C)[nH]c2nc3cc(F)c(F)cc3n2c1=O [Compound 24, 3-ethyl-7,8-difluoro-2-isopropylbenzo[4,5]imidazo [1,2-a] pyrimidin-4(1H)-one]
effect on MC degranulation in primary human skin mast cells (MRGPRX2 [1]; versus CST-14 (1 µM)): inhibited MC degranulation in response to CST-14 exposure (1 µM) in a concentration-dependent manner
effect on MRGPRX2-mediated Ca2+ mobilization in LAD2 cells (MRGPRX2 [3]): decreased Ca^2+ mobilization; also recorded: inhibited
